Results published in ChEMBL document CHEMBL5136985, “Natural and synthetic β-carboline as a privileged antifungal scaﬀolds” (Eur J Med Chem, 2022).
In brackets after ≈: the same amount, converted by molar mass.

What was measured:
Bipolaris maydis = test: Antifungal activity against Bipolaris maydis relative to control; assay type: functional; parameters: concentration or dose not given beside the values
Alternaria solani = test: Antifungal activity against Alternaria solani relative to control; assay type: functional; parameters: concentration or dose not given beside the values
Sclerotinia sclerotiorum = test: Antifungal activity against Sclerotinia sclerotiorum; assay type: functional, organism-based
[1] = test system: Trichophyton interdigitale; test: Antifungal activity against Trichophyton interdigitale; assay type: functional
Bipolaris oryzae = test: Antifungal activity against Helminthosporium oryzae assessed as inhibition of growth rate at 100 ug/ml by disc diffusion method relative to control; assay type: functional
Aspergillus niger = test: Antifungal activity against Aspergillus niger assessed as inhibition of growth rate at 100 ug/ml by disc diffusion method relative to control; assay type: functional
Candida albicans [2] = test: Antifungal activity against Candida albicans incubated for 24 hrs by well diffusion method; assay type: functional
Sclerotinia [3] = test: Antifungal activity against sunflower Sclerotinia rot at 50 ug/ml relative to control; assay type: functional; conditions: dose 50 µg/ml
Candida albicans [4] = test: Antifungal activity against Candida albicans; assay type: functional, organism-based; conditions: for MIC: Candida albicans
Candida albicans [5] = test: Antifungal activity against Candida albicans incubated for 72 hrs; assay type: functional
Fusarium solani [6] = test: Antifungal activity against Fusarium solani incubated for 72 hrs; assay type: functional, organism-based
Rhizoctonia solani = test: Antifungal activity against Rhizoctonia solani; assay type: functional, organism-based
Fusarium solani [7] = test: Antifungal activity against Fusarium solani; assay type: functional, organism-based
Alternaria alternata = test: Antifungal activity against Alternaria alternata; assay type: functional
Cytospora mali = test: Antifungal activity against Valsa mali; assay type: functional
[8] = test system: Colletotrichum gloeosporioides; test: Antifungal activity against Colletotrichum gloeosporioides; assay type: functional
Alternaria brassicae = test: Antifungal activity against Alternaria brassicae; assay type: functional
Gaeumannomyces graminis = test: Antifungal activity against Gaeumannomyces graminis; assay type: functional, organism-based
Nakaseomyces glabratus = test: Antifungal activity against Candida glabrata; assay type: functional
Candida tropicalis = test: Antifungal activity against Candida tropicalis; assay type: functional
Kluyveromyces marxianus = test: Antifungal activity against Candida kefyr; assay type: functional
Cryptococcus neoformans = test: Antifungal activity against Cryptococcus neoformans; assay type: functional
Pichia kudriavzevii = test: Antifungal activity against Candida krusei; assay type: functional
Candida parapsilosis = test: Antifungal activity against Candida parapsilosis; assay type: functional; conditions: Lodderomyces parapsilosis
Curvularia lunata = test: Antifungal activity against Curvularia lunata; assay type: functional, organism-based
Metarhizium anisopliae = test: Antifungal activity against Metarhizium anisopliae assessed as reduction of growth rate relative to control; assay type: functional; parameters: scale not given: the % may be the effect or the level left
Phytophthora litchii = test: Antifungal activity against Phytophthora litchii assessed as inhibition of growth rate at 100 mg/L relative to control; assay type: functional
Sclerotinia [9] = test: Antifungal activity against rape Sclerotinia rot at 50 ug/ml relative to control; assay type: functional; conditions: Sclerotinia

Cc1nc(C(=O)O)cc2c1[nH]c1ccccc12 [HARMAN-3-CARBOXYLIC ACID]
Activity (Bipolaris maydis): 21.1% | Activity (Alternaria solani): 33.3%

O=C(O)c1cc2c([nH]c3ccccc32)c(-c2ccsc2)n1
EC50 (Sclerotinia sclerotiorum): 11.9 µM

CCCCCCCc1nccc2c1[nH]c1ccccc12
MIC [1]: 12.5 µg/mL (≈ 46.9 µM)

CN(C)c1ccc(C2NCCc3c2[nH]c2ccccc32)cc1 (stereo not given)
inhibition at 100 µg/mL (Bipolaris oryzae): 21.6% | inhibition at 100 µg/mL (Aspergillus niger): 20.8%

O=C(Nc1ccccc1-c1ccc(Cl)cc1)c1cccnc1Cl [BOSCALID]
EC50 (Sclerotinia sclerotiorum): 0.9 µM

CCCCCCCCCc1nccc2c1[nH]c1ccccc12
MIC [1]: 3.2 µg/mL (≈ 10.9 µM)

Clc1ccc(COC(Cn2ccnc2)c2ccc(Cl)cc2Cl)c(Cl)c1 (stereo not given) [MICONAZOLE]
MIC (Candida albicans [2]): 7.8 µg/mL (≈ 18.7 µM)

Cc1nccc2c3ccccc3n(Cc3cn(-c4ccccc4)nn3)c12
Activity (Sclerotinia [3]): 85.04%

c1ccc2c(c1)c1ccncc1n2-n1c2ccccc2c2ccncc21
EC50 (Candida albicans [4]): > 1 uM/ml

COc1ccc2c(c1)[nH]c1c(C)nccc12 [HARMINE]
Activity (Bipolaris maydis): 22.7% | MIC (Candida albicans [5]): 500 µg/mL (≈ 2360 µM) | Activity (Alternaria solani): 15.7%

COc1cc(C2NCCc3c2[nH]c2ccccc32)ccc1O (stereo not given)
inhibition at 100 µg/mL (Bipolaris oryzae): 22.4% | inhibition at 100 µg/mL (Aspergillus niger): 21.6%

c1ccc2[nH]c(-c3cscn3)nc2c1 [THIABENDAZOLE]
EC50 (Fusarium solani [6]; Fusarium solani, 72 h): 12.5 µM | inhibition (INH) (Fusarium solani [6]; time 72 hrs): 89.3%

c1ccc(-c2nc(-c3nnc(C4CC4)o3)cc3c2[nH]c2ccccc23)cc1
EC50 (Rhizoctonia solani): 4.2 µg/mL (≈ 11.9 µM)

Cc1ccc2c(c1)c1c(n2C)C=[N+](c2ccc(F)cc2)CC1
EC50 (Fusarium solani [7]): 5.44 µM

COc1cc(-c2nc(NC(=O)Nc3ccc(C(F)(F)F)cc3)cc3c2[nH]c2ccccc23)cc(OC)c1OC
EC50 (Rhizoctonia solani): 281 µg/mL (≈ 524 µM)

CC[C@@H]1COC(c2nccc3c2[nH]c2ccccc23)=N1
EC50 (Sclerotinia sclerotiorum): 22.4 µM

O=C1[C@@H]2Cc3c([nH]c4ccccc34)C(c3ccccc3)N2C(=O)[C@@H]2CCCN12 (stereo not given in full)
MIC (Alternaria alternata): 12.5 µg/mL (≈ 33.7 µM) | MIC (Cytospora mali): 12.5 µg/mL (≈ 33.7 µM) | MIC [8]: 12.5 µg/mL (≈ 33.7 µM) | MIC (Alternaria brassicae): 12.5 µg/mL (≈ 33.7 µM)

COC(=O)c1cc2c([nH]c3ccccc32)c(C(=O)OC)n1
EC50 (Gaeumannomyces graminis): 1.16 µM

Cn1c2c(c3ccccc31)CC[N+](c1ccc(F)cc1)=C2
EC50 (Fusarium solani [7]): 2.18 µM

CC[C@@H](C)[C@@H]1COC(c2nccc3c2[nH]c2ccccc23)=N1
EC50 (Sclerotinia sclerotiorum): 17.7 µM

COC1=CC(=O)C[C@@H](C)[C@]12Oc1c(Cl)c(OC)cc(OC)c1C2=O [GRISEOFULVIN]
inhibition at 100 µg/mL (Bipolaris oryzae): 20.4% | inhibition at 100 µg/mL (Aspergillus niger): 20.3%

CCCCCCCC[C@H]1N[C@H](C(=O)OC)Cc2c1[nH]c1ccccc21
MIC (Nakaseomyces glabratus): 3.67 µg/mL (≈ 10.7 µM) | MIC (Candida tropicalis): 7.41 µg/mL (≈ 21.6 µM) | MIC (Kluyveromyces marxianus): 3.67 µg/mL (≈ 10.7 µM) | MIC (Cryptococcus neoformans): 7.41 µg/mL (≈ 21.6 µM) | MIC (Pichia kudriavzevii): 7.41 µg/mL (≈ 21.6 µM) | MIC (Candida albicans [4]): 14.8 µg/mL (≈ 43.2 µM) | MIC (Candida parapsilosis): 14.8 µg/mL (≈ 43.2 µM)

COc1ccc2c3c([nH]c2c1)C(C)=NCC3 [HARMALINE]
MIC (Candida albicans [5]): 666 µg/mL (≈ 3110 µM)

Cc1nccc2c3ccccc3n(Cc3cn(-c4ccncc4)nn3)c12
Activity (Sclerotinia [3]): 84.47%

CCCCCn1c2ccccc2c2cc(C)ncc21
EC50 (Curvularia lunata): 13.8 µg/mL (≈ 54.7 µM)

CCCCCCc1nccc2c1[nH]c1ccccc12
MIC [1]: 25 µg/mL (≈ 99.1 µM)

Cc1nccc2c1[nH]c1cc(O)ccc12
Activity (Bipolaris maydis): 31.8% | Activity (Alternaria solani): 26.3%

CC(C)(C)[C@@H]1COC(c2nccc3c2[nH]c2ccccc23)=N1
EC50 (Sclerotinia sclerotiorum): 13 µM

c1ccc2c(c1)[nH]c1cnccc12 [NORHARMANE]
MIC [1]: 100 µg/mL (≈ 595 µM) | Activity (Metarhizium anisopliae): 11.9%

CCCCCc1nccc2c1[nH]c1ccccc12
MIC [1]: 50 µg/mL (≈ 210 µM)

COCC(=O)N(c1c(C)cccc1C)C(C)C(=O)OC (stereo not given) [METALAXYL]
inhibition at 100 µg/mL (Phytophthora litchii): 93.4%

CO/C=C(/C(=O)OC)c1ccccc1Oc1cc(Oc2ccccc2C#N)ncn1 [AZOXYSTROBIN]
inhibition at 50 µg/mL (Sclerotinia [9]): 88.5% | Activity (Sclerotinia [3]): 88.07%

O=C1[C@@H]2Cc3c([nH]c4ccccc34)C(c3ccc([N+](=O)[O-])cc3)N2C(=O)[C@@H]2CCCN12 (stereo not given in full)
MIC (Alternaria alternata): 12.5 µg/mL (≈ 30 µM) | MIC (Cytospora mali): 12.5 µg/mL (≈ 30 µM) | MIC [8]: 6.25 µg/mL (≈ 15 µM) | MIC (Alternaria brassicae): 12.5 µg/mL (≈ 30 µM)

CCC(C)Cc1nccc2c1[nH]c1ccccc12 (stereo not given)
MIC [1]: 50 µg/mL (≈ 210 µM)

COc1ccc(C2c3[nH]c4ccccc4c3C[C@H]3C(=O)N4CCC[C@H]4C(=O)N23)cc1 (stereo not given in full)
MIC (Alternaria alternata): 12.5 µg/mL (≈ 31.1 µM) | MIC (Cytospora mali): 12.5 µg/mL (≈ 31.1 µM) | MIC [8]: 6.25 µg/mL (≈ 15.6 µM) | MIC (Alternaria brassicae): 12.5 µg/mL (≈ 31.1 µM)

CCCCCCCC[C@@H]1N[C@H](C(=O)OC)Cc2c1[nH]c1ccccc21
MIC (Nakaseomyces glabratus): 23.7 µg/mL (≈ 69.1 µM) | MIC (Candida tropicalis): > 94.7 µg/mL | MIC (Kluyveromyces marxianus): 23.7 µg/mL (≈ 69.1 µM) | MIC (Cryptococcus neoformans): 14.8 µg/mL (≈ 43.2 µM) | MIC (Pichia kudriavzevii): > 94.7 µg/mL | MIC (Candida albicans [4]): > 94.7 µg/mL | MIC (Candida parapsilosis): > 94.7 µg/mL

N#Cc1c(Cl)c(Cl)c(Cl)c(C#N)c1Cl [CHLOROTHALONIL]
Activity (Bipolaris maydis): 91.3% | Activity (Alternaria solani): 73.3%

Cc1nccc2c1[nH]c1ccc(Br)cc12
Activity (Bipolaris maydis): 86.4% | Activity (Alternaria solani): 73.7%

Cc1nccc2c3ccccc3n(Cc3cn(-c4cc(F)c(F)c(F)c4)nn3)c12
Activity (Sclerotinia [3]): 85.98%

Cc1nccc2c1[nH]c1ccc([N+](=O)[O-])cc12
Activity (Bipolaris maydis): 31.6% | Activity (Alternaria solani): 33.3%

CCCCCCCCc1nccc2c1[nH]c1ccccc12
MIC [1]: 3.2 µg/mL (≈ 11.4 µM)
